Reference: patent US12643871B2, “Aryl formamide compound containing chiral sulfur oxide or salt thereof, preparation method, herbicidal composition and use thereof” (Qingdao Kingagroot Chemical Compound Co., Ltd., priority 2019, dated 2026)

Assays:
Assay in all cases: Weeding effect in post-emergence stage
Type in all cases: in vivo
Details in all cases: 250 g/ha; 2 leaf stage; 15 days after application; fresh weight control rate
[1] = tested on: Amaranthus retroflexus
Source text: (§1) The activity level criteria for harmful plant damage (i.e., growth control rate) are as follows: • Level 5: growth control rate is above 85%; • Level 4: growth control rate is greater than or equal to 60% and less than 85%; • Level 3: growth control rate is greater than or equal to 40% and less than 60%; • Level 2: growth control rate is greater than or equal to 20% and less than 40%; • Level 1: growth control rate is greater than or equal to 5% and less than 20%; • Level 0: growth control rate is less than 5%.
(§2) The above growth control rates are fresh weight control rates.
(§3) Experiment on weeding effect in post-emergence stage: monocotyledonous and dicotyledonous weed seeds (Descurainia sophia, Capsella bursa-pastoris, Galium aparine, Stellaria media, Lithospermum arvense, Rorippa indica, Alopecurus aequalis, Beckmannia syzigachne, Sclerochloa dura, Phleum paniculatum, Bromus japonicus, Aegilops tauschii, Phalaris arundinacea, Amaranthus retroflexus, Chenopodiaceae, Commelina communis, Sonchus arvensis, convolvulus arvensis, Cirsium setosum, Solanum nigrum, Acalypha australis, Digitaria sanguinalis, Echinochloa crusgalli, Setaria viridis, Setaria glauca, Leptochloa chinensis, Monochoria vaginalis, Sagittaria trifolia, Scirpus juncoides, Cyperus rotundus, Cyperus iria, Cyperus difformis, Fimbristylis, Portulaca oleracea, Xanthium sibiricum, Pharbitis nil) and major crop seeds (wheat, corn, rice, soybean, cotton, oilseed rape, millet, sorghum, potato, sesame, ricinus) were placed in plastic pots filled with soil, then covered with 0.5-2 cm of soil, allowed to grow in a good greenhouse environment. After 2 weeks of sowing, the test plants were treated in the 2 leaf stage. The tested compounds of the present invention were respectively dissolved in acetone, then added with Tween 80 and 1.5 liter/ha of emulsifiable concentrate of methyl oleate as synergist, diluted with a certain amount of water to obtain a solution with a certain concentration, and sprayed with a spray tower onto the plants. After the application, the plants were cultured for 15 days in the greenhouse, and then the experimental results of the weeding were counted. The doses of the used compounds were 500, 250, 125, 60, 30, 15 g/ha, and the averages were obtained by repeating for three times.

[2] = tested on: Digitaria sanguinalis
Source text: as §1, §2, §3

[3] = tested on: Echinochloa crusgali
Source text: as §1, §2, §3

Structure (SMILES) | weeding effect in post-emergence stage, activity level (growth control rate), Amaranthus retroflexus [1] | weeding effect in post-emergence stage, activity level (growth control rate), Digitaria sanguinalis [2] | weeding effect in post-emergence stage, activity level (growth control rate), Echinochloa crusgali [3]
C=CCC[S@@+]([O-])c1c(S(C)(=O)=O)ccc(C(=O)Nc2nnnn2C)c1C [Compound 619] | 5 (Level 5: growth control rate is above 85%) | 5 (Level 5: growth control rate is above 85%) | 5 (Level 5: growth control rate is above 85%)
Cc1nnc(NC(=O)c2ccc(S(C)(=O)=O)c([S@+]([O-])CCC(C)(C)C)c2C)o1 [Compound 602] | 5 (Level 5: growth control rate is above 85%) | 5 (Level 5: growth control rate is above 85%) | 5 (Level 5: growth control rate is above 85%)
Cc1nnc(NC(=O)c2ccc(S(C)(=O)=O)c([S@+]([O-])CCC(F)=C(F)F)c2C)o1 [Compound 627] | 5 (Level 5: growth control rate is above 85%) | 5 (Level 5: growth control rate is above 85%) | 5 (Level 5: growth control rate is above 85%)
Cc1nnc(NC(=O)c2ccc(S(C)(=O)=O)c([S@+]([O-])CCCO)c2C)o1 [Compound 628] | 5 (Level 5: growth control rate is above 85%) | 5 (Level 5: growth control rate is above 85%) | 5 (Level 5: growth control rate is above 85%)
Cc1nnc(NC(=O)c2ccc(Cl)c([S@@+](C)[O-])c2Cl)o1 [Compound 621] | 5 (Level 5: growth control rate is above 85%) | 5 (Level 5: growth control rate is above 85%) | 5 (Level 5: growth control rate is above 85%)
CCC[S@@+]([O-])c1c(C(F)(F)F)ccc(C(=O)Nc2ncn[nH]2)c1F [Compound 600] | 5 (Level 5: growth control rate is above 85%) | 5 (Level 5: growth control rate is above 85%) | 5 (Level 5: growth control rate is above 85%)
C#CCC[S@@+]([O-])c1c(S(C)(=O)=O)ccc(C(=O)Nc2nnc(C)o2)c1C [Compound 624] | 5 (Level 5: growth control rate is above 85%) | 5 (Level 5: growth control rate is above 85%) | 5 (Level 5: growth control rate is above 85%)
CC(=O)C[S@@+]([O-])c1c(S(C)(=O)=O)ccc(C(=O)Nc2nnc(C)o2)c1C [Compound 611] | 5 (Level 5: growth control rate is above 85%) | 5 (Level 5: growth control rate is above 85%) | 5 (Level 5: growth control rate is above 85%)
CC(=O)C[S@@+]([O-])c1c(S(C)(=O)=O)ccc(C(=O)Nc2nnnn2C)c1C [Compound 609] | 5 (Level 5: growth control rate is above 85%) | 5 (Level 5: growth control rate is above 85%) | 5 (Level 5: growth control rate is above 85%)
CSCCC[S@@+]([O-])c1c(C(F)(F)F)ccc(C(=O)Nc2nnc(C)o2)c1SC [Compound 599] | 5 (Level 5: growth control rate is above 85%) | 5 (Level 5: growth control rate is above 85%) | 5 (Level 5: growth control rate is above 85%)
CSCCC[S@@+]([O-])c1c(C(F)(F)F)ccc(C(=O)Nc2nnc(C)o2)c1F [Compound 598] | 5 (Level 5: growth control rate is above 85%) | 5 (Level 5: growth control rate is above 85%) | 5 (Level 5: growth control rate is above 85%)
Cc1nnc(NC(=O)c2ccc(F)c([S@@+](C)[O-])c2F)o1 [Compound 623] | 5 (Level 5: growth control rate is above 85%) | 5 (Level 5: growth control rate is above 85%) | 5 (Level 5: growth control rate is above 85%)
Cc1c(C(=O)Nc2nnnn2C)ccc(S(C)(=O)=O)c1[S@+]([O-])CC(C)O (stereo partly shown) [Compound 620] | 5 (Level 5: growth control rate is above 85%) | 5 (Level 5: growth control rate is above 85%) | 5 (Level 5: growth control rate is above 85%)
Cc1c(C(=O)Nc2nnnn2C)ccc(S(C)(=O)=O)c1[S+]([O-])CC1CCC1 (stereo not shown) [Compound 626] | 5 (Level 5: growth control rate is above 85%) | 5 (Level 5: growth control rate is above 85%) | 5 (Level 5: growth control rate is above 85%)
CSCC[S@@+]([O-])c1c(C(F)(F)F)ccc(C(=O)Nc2nnnn2C)c1SC [Compound 595] | 5 (Level 5: growth control rate is above 85%) | 5 (Level 5: growth control rate is above 85%) | 5 (Level 5: growth control rate is above 85%)
Cc1c(C(=O)Nc2nnnn2C)ccc(S(C)(=O)=O)c1[S@+]([O-])CCO [Compound 607] | 5 (Level 5: growth control rate is above 85%) | 5 (Level 5: growth control rate is above 85%) | 5 (Level 5: growth control rate is above 85%)
Cc1nnc(NC(=O)c2ccc(S(C)(=O)=O)c([S@+]([O-])CC(C)F)c2C)o1 (stereo partly shown) [Compound 501] | 5 (Level 5: growth control rate is above 85%) |  | 5 (Level 5: growth control rate is above 85%)
Cc1nnc(NC(=O)c2ccc(C(F)(F)F)c([S@+]([O-])CC(=O)N(C)C)c2F)o1 [Compound 178] | 5 (Level 5: growth control rate is above 85%) |  | 5 (Level 5: growth control rate is above 85%)
